Test system: SARS-CoV-2 Variants Alpha, Beta, Gamma and Delta
Experiment: In vitro activity against SARS-CoV-2 variants (pooled statements)

2-aminoethanethiol [cysteamine]
inactivation of the virus in tissue culture (10 mM solution, contingent on time of exposure and concentration): 85-100% | inactivation of the variants (10 mM, 15-90 minutes exposure): near complete inactivation

From patent US12527753B2, “Cysteamine for the treatment, mitigation and prevention of coronaviral, e.g., SARS-CoV-2, infections” (The Regents of the University of Michigan, priority 2020, dated 2026)
